Earlier results, collected in patent US4729992A, “Cephalosporin esters, their production and use” (Tatsuo Chemical Ind., Ltd., priority 1984, dated 1988).

Legend:
Conditions in all cases: Antimicrobial Agent and Chemotherapy 14, 557-568 (1978)
Proteus morganii = tested on: Proteus morganii
Escherichia coli = tested on: Escherichia coli
Proteus mirabilis = tested on: Proteus mirabilis
Staphylococcus aureus = tested on: Staphylococcus aureus
Klebsiella pneumoniae = tested on: Klebsiella pneumoniae
Proteus vulgaris = tested on: Proteus vulgaris

Measured: antibacterial activity

CN(C)CCn1nnnc1SCC1=C(C(=O)O)N2C(=O)[C@@H](NC(=O)Cc3csc(N)n3)[C@H]2SC1 [compound [II], 7β-[2-(2-aminothiazol-4-yl)acetamido]3-[[[1-(2-dimethylaminoethyl)-1H-tetrazol-5-yl]thio]methyl]ceph-3-em-4-carboxylic acid]
potent antibacterial activity: all assays above
